In PubChem BioAssay (NCI):
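Compound exposure: 48 hours, 5 concentrations, 96-well plates. At the GI50, growth is halved. At the TGI there is no net growth.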

Experiments:
Assay in all cases: growth of human tumour cells (NCI), 48 h
A498 renal = tested on: A498 renal
ACHN renal = tested on: ACHN renal
BT-549 breast = tested on: BT-549 breast
HCC-2998 colon = tested on: HCC-2998 colon
MDA-MB-231 breast = tested on: MDA-MB-231 breast
NCI-H226 lung = tested on: NCI-H226 lung
SF-539 CNS = tested on: SF-539 CNS
SK-OV-3 ovarian = tested on: SK-OV-3 ovarian
SR leukemia = tested on: SR leukemia
T-47D breast = tested on: T-47D breast

Row | SMILES | TGI (A498 renal) | TGI (ACHN renal) | TGI (BT-549 breast) | TGI (HCC-2998 colon) | TGI (MDA-MB-231 breast) | TGI (NCI-H226 lung) | TGI (SF-539 CNS) | TGI (SK-OV-3 ovarian) | TGI (SR leukemia) | TGI (T-47D breast) | GI50 (A498 renal) | GI50 (ACHN renal) | GI50 (HCC-2998 colon) | GI50 (MDA-MB-231 breast) | GI50 (NCI-H226 lung) | GI50 (SF-539 CNS) | GI50 (SK-OV-3 ovarian) | GI50 (T-47D breast) | GI50 (BT-549 breast) | GI50 (SR leukemia)
1 | CC[C@H]1C=CCC[C@@]2(C[C@@H]3CC[C@@H]4[C@H](C(=O)OCCCCCCCCCCCCCCCC(=O)O)[C@]5(CCC[C@@H](C)O5)NC(=[N+]34)N2)O1 | 1.23 µM | 1.89 µM | 6.9 µM | 0.283 µM | 9.09 µM | 3.69 µM | 3.12 µM | 11.8 µM | 0.357 µM | 11.9 µM | – | – | – | – | – | – | – | – | – | –
2 | COc1cccc(N=Cc2cc3cc(Br)ccc3nc2Cl)c1 | – | – | > 50 µM | > 50 µM | – | 25.7 µM | > 50 µM | > 50 µM | 20.8 µM | > 50 µM | – | – | – | – | – | – | – | – | – | –
3 | CCCc1[nH]c(SCCCCCCCCSc2nc(-c3ccc(F)cc3)c(CCC)[nH]2)nc1-c1ccc(F)cc1 | – | > 100 µM | – | > 100 µM | – | – | 27.7 µM | – | > 100 µM | – | – | – | – | – | – | – | – | – | – | –
4 | COc1cc(/C=C/C(=O)c2ccc(NS(=O)(=O)c3cc([N+](=O)[O-])ccc3C)cc2)cc(OC)c1OC | – | 15.9 µM | 14.4 µM | – | 7.39 µM | 8.74 µM | 6.3 µM | 15.4 µM | 5.74 µM | 38.6 µM | – | – | – | – | – | – | – | – | – | –
5 | CC(=O)Nc1cc([As](=O)(O)O)ccc1O | > 100 µM | > 100 µM | > 100 µM | > 100 µM | > 100 µM | > 100 µM | > 100 µM | > 100 µM | > 100 µM | > 100 µM | – | – | – | – | – | – | – | – | – | –
6 | CNC(=O)OC(C)CN1c2ccccc2Sc2ccc(Cl)cc21 (stereo not drawn) | > 10 µM | > 10 µM | – | > 10 µM | > 10 µM | > 10 µM | > 10 µM | > 10 µM | > 10 µM | > 10 µM | – | – | – | – | – | – | – | – | – | –
7 | CCOC(=O)CSc1nc(N)c2c(-c3ccc(OC)c(OC)c3)c3c(nc2n1)CCCC3 | – | > 100 µM | > 100 µM | – | > 100 µM | – | – | > 100 µM | > 100 µM | > 100 µM | – | – | – | – | – | – | – | – | – | –
8 | CCS(=O)(=O)Nc1ccc(Nc2c3ccccc3nc3ccccc23)c(OC)c1 | 2.28 µM | – | – | 9.3 µM | – | 3.19 µM | 4.38 µM | 5.89 µM | – | – | – | – | – | – | – | – | – | – | – | –
9 | COc1ccc2nc(N/N=C/C(C)=N/Nc3cc(C)c4cc(OC)ccc4n3)cc(C)c2c1 | > 80.9 µM | 55.3 µM | > 100 µM | 47.1 µM | 36.7 µM | 53.3 µM | 34.7 µM | > 100 µM | 12.8 µM | > 73.6 µM | – | – | – | – | – | – | – | – | – | –
10 | CCOC(=O)N(Cc1cccs1)c1cc(OC)c(OC)c(OC)c1 | > 100 µM | > 100 µM | > 100 µM | > 100 µM | > 100 µM | > 100 µM | – | – | 65.5 µM | > 100 µM | – | – | – | – | – | – | – | – | – | –
11 | COc1ccc2nc(-c3ccc(-c4noc(-c5cc(OC)c(OC)c(OC)c5)n4)cc3)[nH]c2c1 | > 100 µM | > 100 µM | – | > 100 µM | 13.9 µM | 81.4 µM | 3.83 µM | 64.8 µM | – | 35.9 µM | 28000 nM | 28200 nM | 35.5 µM | 2650 nM | 22.7 µM | 2000 nM | 25.3 µM | 14700 nM | – | –
12 | CC#CC#C/C=C1/O[C@]2(CCC(OC(C)=O)CO2)[C@@H]2O[C@H]12 (stereo partly drawn) | 45.7 µM | 60.8 µM | 50.4 µM | 33 µM | 44.2 µM | 47.4 µM | – | > 100 µM | > 100 µM | 52.1 µM | – | – | – | – | – | – | – | – | – | –
13 | Cn1c(=S)[nH]c2sc3c(c2c1=O)CCSC3 | > 100 µM | > 100 µM | > 100 µM | > 100 µM | > 100 µM | 88.6 µM | > 100 µM | > 100 µM | – | 90.2 µM | – | – | – | – | – | – | – | – | – | –
14 | COc1cc(C2C(C(=O)O)=C(CO)Oc3cc4c(cc32)OCO4)cc(OC)c1O (stereo not drawn) | – | > 100 µM | – | – | – | – | > 100 µM | > 100 µM | – | – | – | – | – | – | – | – | – | – | – | –
15 | CN1CC[C@@]2(c3cccc(O)c3)CC(=O)/C(=C/c3ccccc3)[C@H]1C2 | 30.4 µM | 22.6 µM | 26.7 µM | 25 µM | 23.6 µM | 42.5 µM | 35.3 µM | – | 7.5 µM | – | – | – | – | – | – | – | – | – | – | –
16 | N=c1c2c(C(N)=O)cn(C3OC(CO)C(O)C3O)c2ncn1O (stereo not drawn) | – | 0.311 µM | 4.61 µM | – | – | 1.57 µM | 2.02 µM | > 36.3 µM | 0.234 µM | 3.69 µM | – | – | – | – | – | – | – | – | – | –
17 | COc1ccc(/C=C2\C(=O)N(C3OC(COC(C)=O)C(OC(C)=O)C(OC(C)=O)C3OC(C)=O)c3ccccc3N=C2N)cc1 (stereo not drawn) | > 100 µM | > 100 µM | 71.6 µM | 54.4 µM | > 100 µM | – | 21.4 µM | > 100 µM | 53.6 µM | 40.8 µM | – | – | – | – | – | – | – | – | – | –
18 | COc1cc(C=C2C(C)=NN(c3cccc(Cl)c3)C23SCC(=O)N3c2nc3ccccc3s2)ccc1O (stereo not drawn) | 66 µM | 77.5 µM | 58.8 µM | > 83.5 µM | 54.6 µM | > 80.7 µM | > 58.4 µM | 50.8 µM | 29.2 µM | > 100 µM | – | – | – | – | – | – | – | – | – | –
19 | CCN(CC)CC(C)Nc1ccc([N+](=O)[O-])c2sc3ccccc3c(=O)c12 (stereo not drawn) | 10.5 µM | 4.3 µM | 21.4 µM | 11.9 µM | 9.09 µM | 3.72 µM | 7.56 µM | 13.2 µM | – | 13.2 µM | 1490 nM | 895 nM | 2.21 µM | 2160 nM | 1.09 µM | 2000 nM | 1.87 µM | 2050 nM | 5.03 µM | –
20 | O=C(CCCCCCC(=O)Nc1ccc(N(CCCl)CCCl)cc1)NO | 13.1 µM | 4.86 µM | 29.2 µM | 22.6 µM | 52.4 µM | 21 µM | 14.7 µM | 15.9 µM | 3.09 µM | 7.37 µM | 3110 nM | 1090 nM | 9.26 µM | 6990 nM | 4.01 µM | 2380 nM | 3.76 µM | 1630 nM | 5.83 µM | 230 nM
21 | ONc1ncnc2nc[nH]c12 | – | > 100 µM | – | > 100 µM | – | > 100 µM | > 100 µM | – | > 100 µM | – | – | – | – | – | – | – | – | – | – | –
22 | Cc1nc(N)nc(N)c1-c1ccc(Cl)c(Cl)c1 | > 80.6 µM | > 100 µM | > 100 µM | > 50.6 µM | > 100 µM | > 100 µM | > 100 µM | > 100 µM | > 100 µM | > 100 µM | – | – | – | – | – | – | – | – | – | –
23 | O=S(=O)(O)c1ccc2cccc(N=Nc3c(O)ccc4ccccc34)c2c1 | > 100 µM | > 100 µM | > 100 µM | > 100 µM | > 100 µM | > 100 µM | > 100 µM | > 100 µM | > 100 µM | > 100 µM | – | – | – | – | – | – | – | – | – | –
24 | Cc1cccc2nc3c(C(=O)NCCN(C)C)cccc3cc12 | 3.48 µM | – | – | 5.36 µM | – | 4.65 µM | 4.84 µM | 7.9 µM | – | – | – | – | – | – | – | – | – | – | – | –
25 | CC1SC(c2ccccc2)N(CCc2cccs2)C1=O (stereo not drawn) | 14.2 µM | 17.9 µM | 12.9 µM | 16.4 µM | 16.1 µM | 26.4 µM | 19.2 µM | 20.9 µM | 16.4 µM | 18.7 µM | 2630 nM | 4690 nM | 4.4 µM | 3300 nM | 6.15 µM | 5140 nM | 7.64 µM | 2160 nM | 3.35 µM | 3060 nM
26 | O=C(N/N=C(/c1ccccc1)C(F)(F)F)c1ccncc1 | > 100 µM | – | > 100 µM | > 100 µM | – | > 100 µM | – | > 100 µM | > 100 µM | > 100 µM | – | – | – | – | – | – | – | – | – | –
